The target of data set [1] is T1, von Hippel-Lindau disease tumor suppressor/Histone-lysine N-methyltransferase, H3 lysine-79 specific (Homo sapiens, UniProt Q8TEK3+P40337). Description: PROTAC activity at VHL/DOTIL in mixed-lineage leukemia rearranged (MLL-r) human THP-1 cells assessed as induction of DOT1L degradation by measuring fold change in DOTIL protein level at 3 uM incubated for 24 hrs by western blot analysis relative to control. The class given is cell-based. In general terms: A western blot detects proteins with antibodies after separation by electrophoresis.
Target sequence in this assay (P40337 whole entry, looked up): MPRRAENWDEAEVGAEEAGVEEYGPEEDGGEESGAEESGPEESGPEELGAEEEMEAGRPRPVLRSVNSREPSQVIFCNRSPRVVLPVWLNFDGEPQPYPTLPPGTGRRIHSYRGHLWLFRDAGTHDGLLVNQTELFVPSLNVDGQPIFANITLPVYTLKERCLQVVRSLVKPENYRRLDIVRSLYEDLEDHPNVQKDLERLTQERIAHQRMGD
Target sequence in this assay (Q8TEK3 whole entry, looked up): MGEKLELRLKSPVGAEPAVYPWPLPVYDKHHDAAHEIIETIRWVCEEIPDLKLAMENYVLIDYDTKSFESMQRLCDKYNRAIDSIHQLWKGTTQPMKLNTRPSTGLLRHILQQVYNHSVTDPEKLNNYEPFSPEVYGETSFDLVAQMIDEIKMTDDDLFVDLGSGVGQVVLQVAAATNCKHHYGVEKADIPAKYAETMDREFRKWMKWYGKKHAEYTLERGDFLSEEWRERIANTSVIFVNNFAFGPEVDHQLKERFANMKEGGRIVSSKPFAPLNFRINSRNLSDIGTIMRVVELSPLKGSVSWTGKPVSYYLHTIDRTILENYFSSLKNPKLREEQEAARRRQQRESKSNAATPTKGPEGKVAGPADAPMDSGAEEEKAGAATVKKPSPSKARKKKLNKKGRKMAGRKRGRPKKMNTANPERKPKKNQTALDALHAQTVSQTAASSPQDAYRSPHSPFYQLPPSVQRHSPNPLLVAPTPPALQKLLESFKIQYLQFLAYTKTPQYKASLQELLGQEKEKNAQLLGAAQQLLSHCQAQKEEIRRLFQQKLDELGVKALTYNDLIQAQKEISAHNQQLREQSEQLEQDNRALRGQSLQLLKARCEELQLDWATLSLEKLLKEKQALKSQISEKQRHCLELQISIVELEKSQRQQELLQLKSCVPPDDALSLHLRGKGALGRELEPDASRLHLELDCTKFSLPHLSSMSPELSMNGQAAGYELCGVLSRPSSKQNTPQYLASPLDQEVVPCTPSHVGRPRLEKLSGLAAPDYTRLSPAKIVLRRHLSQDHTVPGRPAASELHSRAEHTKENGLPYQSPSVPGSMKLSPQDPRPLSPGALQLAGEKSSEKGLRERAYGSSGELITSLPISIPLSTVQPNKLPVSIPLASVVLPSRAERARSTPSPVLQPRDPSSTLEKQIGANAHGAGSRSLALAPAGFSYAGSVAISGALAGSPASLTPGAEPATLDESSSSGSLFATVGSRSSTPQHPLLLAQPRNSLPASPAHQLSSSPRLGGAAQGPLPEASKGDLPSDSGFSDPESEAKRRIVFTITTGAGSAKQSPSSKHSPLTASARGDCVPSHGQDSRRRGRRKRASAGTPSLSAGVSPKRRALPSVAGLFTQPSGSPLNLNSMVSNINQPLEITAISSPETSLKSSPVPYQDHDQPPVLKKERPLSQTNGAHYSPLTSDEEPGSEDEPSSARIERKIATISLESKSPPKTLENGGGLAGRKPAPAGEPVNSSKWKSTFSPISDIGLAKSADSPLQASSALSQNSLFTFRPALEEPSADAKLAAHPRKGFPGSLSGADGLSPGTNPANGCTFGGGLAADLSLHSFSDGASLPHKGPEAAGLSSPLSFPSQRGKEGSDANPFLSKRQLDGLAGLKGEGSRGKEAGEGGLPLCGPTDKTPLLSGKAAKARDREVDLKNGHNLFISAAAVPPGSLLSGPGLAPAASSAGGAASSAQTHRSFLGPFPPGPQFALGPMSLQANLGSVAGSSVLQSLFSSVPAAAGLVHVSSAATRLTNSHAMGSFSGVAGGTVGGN

Data set [2] concerns the target T1, von Hippel-Lindau disease tumor suppressor/Histone-lysine N-methyltransferase, H3 lysine-79 specific. Description: PROTAC activity at VHL/DOT1L in mixed-lineage leukemia rearranged (MLL-r) human THP-1 cells assessed as induction of DOT1L degradation incubated for 24 hrs by western blot analysis. Format: cell-based.
The target is the same in data set [3]. Description: PROTAC activity at VHL/DOT1L in mixed-lineage leukemia rearranged (MLL-r) human THP-1 cells assessed as induction of DOTIL degradation by measuring fold change in DOT1L protein level at 3 uM incubated for 1 hr by western blot analysis relative to control. Format: cell-based.
Target sequence in this assay (P40337 whole entry, looked up): as the sequence (P40337 whole entry, looked up) above
Target sequence in this assay (Q8TEK3 whole entry, looked up): as the sequence (Q8TEK3 whole entry, looked up) above
Data set [4] shares this target. Nature of the data set: PROTAC activity at VHL/DOT1L in mixed-lineage leukemia rearranged (MLL-r) human THP-1 cells assessed as induction of DOTIL degradation by measuring fold change in H3K79Me2 level at 3 uM incubated for 4 hrs by western blot analysis relative to control. Format: cell-based.
Target sequence in this assay (P40337 whole entry, looked up): as the sequence (P40337 whole entry, looked up) above
Target sequence in this assay (Q8TEK3 whole entry, looked up): as the sequence (Q8TEK3 whole entry, looked up) above
For data set [5] the target is unchanged. Description: PROTAC activity at VHL/DOT1L in mixed-lineage leukemia rearranged (MLL-r) human THP-1 cells assessed as induction of DOTIL degradation by measuring fold change in H3K79Me2 level at 3 uM incubated for 8 hrs by western blot analysis relative to control. The class given is cell-based.
Target sequence in this assay (P40337 whole entry, looked up): as the sequence (P40337 whole entry, looked up) above
Target sequence in this assay (Q8TEK3 whole entry, looked up): as the sequence (Q8TEK3 whole entry, looked up) above
Data set [6] shares this target. Nature of the data set: PROTAC activity at VHL/DOT1L in mixed-lineage leukemia rearranged (MLL-r) human MV4-11 cells assessed as induction of DOTIL degradation by measuring fold change in DOT1L protein level at 3 uM incubated for 2 hrs by western blot analysis relative to control. The class given is cell-based.
Target sequence in this assay (P40337 whole entry, looked up): as the sequence (P40337 whole entry, looked up) above
Target sequence in this assay (Q8TEK3 whole entry, looked up): as the sequence (Q8TEK3 whole entry, looked up) above
For data set [7] the target is unchanged. Nature of the data set: PROTAC activity at VHL/DOT1L in mixed-lineage leukemia rearranged (MLL-r) human MV4-11 cells assessed as induction of DOTIL degradation by measuring fold change in DOT1L protein level at 3 uM incubated for 8 hrs by western blot analysis relative to control. Format: cell-based.
Target sequence in this assay (P40337 whole entry, looked up): as the sequence (P40337 whole entry, looked up) above
Target sequence in this assay (Q8TEK3 whole entry, looked up): as the sequence (Q8TEK3 whole entry, looked up) above
The target is the same in data set [8]. Description: PROTAC activity at VHL/DOT1L in mixed-lineage leukemia rearranged (MLL-r) human MV4-11 cells assessed as induction of DOTIL degradation by measuring fold change in H3K79Me2 level at 3 uM incubated for 8 hrs by western blot analysis relative to control. Format: cell-based.
Data set [9] shares this target. Description: PROTAC activity against VHL/DOT1L in mixed-lineage leukemia rearranged (MLL-r) human THP-1 cells assessed as induction of DOT1L degradation at 3 uM preincubated with proteasome inhibitor, MG-132 for 1 hr followed by incubation with compound for 4 hrs by western blot analysis. The class given is cell-based.
The test system of data set [10] is MV4-11. Description: Effect on DOTIL mRNA expression in mixed-lineage leukemia rearranged (MLL-r) human MV4-11 cells at 3 uM incubated for 24 hrs by RT-qPCR analysis. The class given is functional, cell-based. Background: Real-time PCR tracks product formation cycle by cycle.
The target of data set [11] is T1, von Hippel-Lindau disease tumor suppressor/Histone-lysine N-methyltransferase, H3 lysine-79 specific. Nature of the data set: PROTAC activity at VHL/DOT1L in mixed-lineage leukemia rearranged (MLL-r) human MOLM-13 cells assessed as induction of DOT1L degradation at 0.3 to 3 uM by western blot analysis. The class given is cell-based. The note with it: dose 0.3-3 µM.

Data set [12] concerns the target DNA (cytosine-5)-methyltransferase 1 (Homo sapiens) (UniProt P26358). Description: Inhibition of human DNMT1 using poly(dI-dC) and SAM as substrate at 10 uM by radiometric Hotspot assay.
Data set [13] addresses Histone-lysine N-methyltransferase EZH2 (Homo sapiens) (UniProt Q15910). Description: Inhibition of human EZH2 using core histone and SAM as substrate at 10 uM by radiometric Hotspot assay.
Data set [14] addresses T2, Histone-lysine N-methyltransferase NSD2 (Homo sapiens) (UniProt O96028).
T2 sequence (whole entry): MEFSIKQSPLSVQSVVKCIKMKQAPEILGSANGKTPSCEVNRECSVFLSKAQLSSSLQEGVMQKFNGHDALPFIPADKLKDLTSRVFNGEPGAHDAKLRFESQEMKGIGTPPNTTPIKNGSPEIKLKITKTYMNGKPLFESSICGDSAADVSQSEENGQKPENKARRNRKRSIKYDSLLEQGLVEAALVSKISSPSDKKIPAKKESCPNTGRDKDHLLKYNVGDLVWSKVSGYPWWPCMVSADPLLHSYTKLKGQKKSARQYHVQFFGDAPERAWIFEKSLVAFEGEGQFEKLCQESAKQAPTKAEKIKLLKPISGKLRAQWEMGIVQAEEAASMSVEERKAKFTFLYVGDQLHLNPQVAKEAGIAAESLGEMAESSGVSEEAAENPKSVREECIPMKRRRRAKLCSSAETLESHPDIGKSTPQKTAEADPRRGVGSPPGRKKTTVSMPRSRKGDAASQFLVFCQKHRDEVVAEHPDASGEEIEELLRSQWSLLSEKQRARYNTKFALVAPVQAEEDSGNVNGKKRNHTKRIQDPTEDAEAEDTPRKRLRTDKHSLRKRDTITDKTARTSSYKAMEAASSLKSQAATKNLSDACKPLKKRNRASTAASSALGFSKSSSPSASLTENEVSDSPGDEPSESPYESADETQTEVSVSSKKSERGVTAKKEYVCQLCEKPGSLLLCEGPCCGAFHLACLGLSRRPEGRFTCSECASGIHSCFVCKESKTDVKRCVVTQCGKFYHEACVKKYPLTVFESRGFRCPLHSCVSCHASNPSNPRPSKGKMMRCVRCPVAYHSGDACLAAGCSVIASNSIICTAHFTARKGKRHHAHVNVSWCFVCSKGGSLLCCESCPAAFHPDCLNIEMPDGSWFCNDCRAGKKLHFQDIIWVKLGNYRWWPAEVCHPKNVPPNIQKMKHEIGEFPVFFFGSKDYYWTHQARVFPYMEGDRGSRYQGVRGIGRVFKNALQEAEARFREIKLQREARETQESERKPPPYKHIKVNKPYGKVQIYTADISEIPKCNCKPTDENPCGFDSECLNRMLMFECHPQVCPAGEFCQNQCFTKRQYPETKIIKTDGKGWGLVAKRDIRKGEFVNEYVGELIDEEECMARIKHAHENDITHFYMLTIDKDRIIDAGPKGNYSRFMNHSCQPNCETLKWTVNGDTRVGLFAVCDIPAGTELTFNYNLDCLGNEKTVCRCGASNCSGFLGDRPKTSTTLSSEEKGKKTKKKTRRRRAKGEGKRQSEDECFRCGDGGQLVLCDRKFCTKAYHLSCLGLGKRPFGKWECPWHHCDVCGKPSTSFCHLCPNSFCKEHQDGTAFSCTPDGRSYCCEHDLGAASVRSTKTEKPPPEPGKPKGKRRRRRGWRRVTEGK
Nature of the data set: Inhibition of human NSD2 using nucleosomes and SAM as substrate at 10 uM by radiometric Hotspot assay.

In data set [15] the test system is MV4-11. Description: Antiproliferative activity against mixed-lineage leukemia rearranged (MLL-r) human MV4-11 cells assessed as inhibition of cell growth incubated for 7 days by CCK-8 assay. Format: functional. The note with it: MV4-11, 168 h, time 7 day. On the technique in general: Tetrazolium dyes change colour on reduction, which living cells bring about.

Another data set has as its system MCF-10A. Nature of the data set: Cytotoxicity against human MCF-10A cells assessed as inhibition of cell growth incubated for 7 days by CCK-8 assay. The note with it: 168 h, time 7 day. The class given is toxicity, cell-based.

Active and inactive are the calls of the source. The calls are words filed in the database; no cut-off is given here.

Sequence of DNA (cytosine-5)-methyltransferase 1 (Homo sapiens) (P26358 whole entry): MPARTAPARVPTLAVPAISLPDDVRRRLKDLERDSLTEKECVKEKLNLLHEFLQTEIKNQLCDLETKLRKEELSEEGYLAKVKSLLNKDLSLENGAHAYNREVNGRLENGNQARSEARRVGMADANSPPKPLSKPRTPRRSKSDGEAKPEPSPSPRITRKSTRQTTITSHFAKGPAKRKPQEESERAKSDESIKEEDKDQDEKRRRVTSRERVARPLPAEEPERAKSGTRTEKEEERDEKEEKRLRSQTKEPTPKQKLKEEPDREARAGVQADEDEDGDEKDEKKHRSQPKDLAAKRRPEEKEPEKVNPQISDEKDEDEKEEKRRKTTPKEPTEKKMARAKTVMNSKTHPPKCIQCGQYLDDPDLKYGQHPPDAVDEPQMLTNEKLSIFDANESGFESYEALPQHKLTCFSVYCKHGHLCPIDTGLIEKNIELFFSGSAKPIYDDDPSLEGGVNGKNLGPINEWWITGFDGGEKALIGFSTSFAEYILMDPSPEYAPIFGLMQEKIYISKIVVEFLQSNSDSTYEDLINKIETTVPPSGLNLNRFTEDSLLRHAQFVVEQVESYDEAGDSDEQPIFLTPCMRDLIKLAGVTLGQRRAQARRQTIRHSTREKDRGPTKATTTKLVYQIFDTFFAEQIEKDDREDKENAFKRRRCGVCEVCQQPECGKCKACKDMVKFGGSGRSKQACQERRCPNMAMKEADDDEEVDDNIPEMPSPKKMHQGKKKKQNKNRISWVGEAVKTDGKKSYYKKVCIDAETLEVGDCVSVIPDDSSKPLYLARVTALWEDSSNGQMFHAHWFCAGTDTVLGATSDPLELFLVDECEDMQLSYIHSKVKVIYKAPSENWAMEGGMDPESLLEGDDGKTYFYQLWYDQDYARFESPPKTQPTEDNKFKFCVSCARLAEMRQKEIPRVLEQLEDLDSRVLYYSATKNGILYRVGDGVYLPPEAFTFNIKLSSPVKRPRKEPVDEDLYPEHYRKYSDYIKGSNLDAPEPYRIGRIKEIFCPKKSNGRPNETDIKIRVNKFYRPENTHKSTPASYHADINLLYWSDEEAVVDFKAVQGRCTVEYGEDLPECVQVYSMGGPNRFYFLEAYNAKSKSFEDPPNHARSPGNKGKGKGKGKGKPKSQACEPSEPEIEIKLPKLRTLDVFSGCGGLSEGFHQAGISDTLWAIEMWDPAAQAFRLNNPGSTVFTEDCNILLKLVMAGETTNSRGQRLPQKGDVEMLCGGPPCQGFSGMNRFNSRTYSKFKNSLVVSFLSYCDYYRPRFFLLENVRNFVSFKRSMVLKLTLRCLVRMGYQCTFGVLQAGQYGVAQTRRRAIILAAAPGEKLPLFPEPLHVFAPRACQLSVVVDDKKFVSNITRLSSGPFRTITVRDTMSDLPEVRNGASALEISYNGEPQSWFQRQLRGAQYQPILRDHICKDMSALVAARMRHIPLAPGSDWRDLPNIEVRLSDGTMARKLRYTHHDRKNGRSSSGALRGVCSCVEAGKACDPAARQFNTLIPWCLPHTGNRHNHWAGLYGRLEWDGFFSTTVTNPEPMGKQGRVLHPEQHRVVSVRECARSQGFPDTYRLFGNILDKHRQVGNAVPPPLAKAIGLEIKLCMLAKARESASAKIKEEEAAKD
Sequence of Histone-lysine N-methyltransferase EZH2 (Homo sapiens) (Q15910 whole entry, looked up): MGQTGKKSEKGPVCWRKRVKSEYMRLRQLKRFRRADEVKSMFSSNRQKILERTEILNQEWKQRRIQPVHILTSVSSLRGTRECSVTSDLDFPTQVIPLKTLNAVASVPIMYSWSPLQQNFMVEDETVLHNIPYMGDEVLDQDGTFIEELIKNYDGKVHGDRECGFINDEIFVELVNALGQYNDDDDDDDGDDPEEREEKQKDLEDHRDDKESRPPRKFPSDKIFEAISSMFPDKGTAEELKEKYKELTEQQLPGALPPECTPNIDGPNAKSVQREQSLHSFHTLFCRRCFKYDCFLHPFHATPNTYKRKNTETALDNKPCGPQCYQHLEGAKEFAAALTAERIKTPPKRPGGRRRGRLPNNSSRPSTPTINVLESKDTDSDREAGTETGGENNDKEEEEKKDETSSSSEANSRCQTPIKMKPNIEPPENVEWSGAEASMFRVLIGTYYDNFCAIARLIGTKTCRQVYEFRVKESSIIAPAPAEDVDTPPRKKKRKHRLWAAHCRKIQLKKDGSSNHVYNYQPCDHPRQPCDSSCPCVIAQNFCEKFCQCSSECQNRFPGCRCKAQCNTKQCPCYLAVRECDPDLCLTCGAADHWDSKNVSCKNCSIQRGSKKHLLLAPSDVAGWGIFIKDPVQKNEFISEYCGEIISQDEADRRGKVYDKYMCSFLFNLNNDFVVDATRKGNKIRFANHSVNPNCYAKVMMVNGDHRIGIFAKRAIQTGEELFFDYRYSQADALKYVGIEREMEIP

As a reminder, the DC50 is the midpoint of the concentration-degradation curve. The term GI50 denotes the concentration at which growth is held to half of that of the control. On to `Cc1ncsc1-c1ccc([C@H](CC(=O)NCCCCCCNC(=O)COc2nc(N)nc(Nc3cc(S(N)(=O)=O)ccc3N[C@@H](c3cccc4c3OC(F)(F)O4)c3ncccc3Cl)n2)NC(=O)[C@@H]2C[C@@H](O)CN2C(=O)[C@@H](NC(=O)C2(F)CC2)C(C)(C)C)cc1`, for which the fold change (FC) in data set [1] worked out at 0.08; in data set [3] it was 0.33; in data set [4], 1.08; in data set [5], 1.13; in data set [6] it was 0.86; in data set [7] it was 0.15. In addition, in data set [8], the fold change (FC) was determined as 0.42. Further, the Activity result in data set [2] is “Dose-dependent-effect”; in the data set on MCF-10A it was “Non-toxic”. The DC50 in data set [2] is 0.056 µM. For the same molecule, the result (in [9]; in the data set on MV4-11 [10]) was inactive. In data set [11], the outcome was Active. The inhibition entry in data set [12], in data set [13] and in [14] was “inactive” each time. In addition, the GI50 with MV4-11 [15] was determined as 0.212 µM.

Source of the values: ChEMBL document CHEMBL6182889, “Discovery of the first-in-class DOT1L PROTAC degrader” (Eur J Med Chem, 2025).
